Data taken from US10189795B2, “Aryl amine substituted quinoxaline used as anticancer drugs” (priority 2014, dated 2019).

Key:
NCI-1703 = test: cell viability of NCI-1703 cells, 1 and 10 uM of each erlotinib derivative, and IC50; type: cell-based; details: Homo sapiens
BA (%), Table 5 = details: in vivo
PP2A = PP2A phosphatase activity (malachite green-phosphate assay in cell lysate); type: cell-based
Description: The protein phosphatase activity in each cell lysate was determined by measuring the generation of free phosphate from threonine phosphopeptide using the malachite green-phosphate complex assay as described by the manufacturer (Upstate Biotechnology, Lake Placid, N.Y., USA). In brief, HCC cell lysates were first prepared in a low-detergent lysis buffer. […] After incubation for 10 min at 30° C., the malachite dye was added and free phosphate was measured by optical density at 650 nm. In order to avoid variation resulting from differences in the amount of immunoprecipitation protein between samples, the phosphatase activities were normalized to the amounts of PP2A immunoprecipitated, which were detected and quantified by immunoblot analysis for each treatment group.

Sk-Hep1 = test: MTT cell viability, Sk-Hep1; type: cell-based; details: Homo sapiens, 48 h
Description: (§1) The Sk-Hep1, PLC/PRF/5 (PLC) and Hep3B cell lines were obtained from American Type Culture Collection (ATCC; Manassas, Va., USA). The Huh-7 HCC cell line was obtained from the Health Science Research Resources Bank (HSRRB; Osaka, Japan; JCRB0403). Cells were maintained in DMEM supplemented with 10% FBS in a 37° C. humidified incubator in an atmosphere of 5% CO^2 in air. Other cell lines, including non-small cell lung cancer cells e.g. H358, H460 and A549 and human squamous cell carcinoma cells e.g. NCI-1703, H2170, H520, SW900 and NCI—H226 all obtained from American Type Culture Collection (Manassas, Va.) were also provided for the assays describes below.
(§2) The present invention compared the antitumor activities of an erlotinib derivative of the present invention, TD-52, and erlotinib on HCC cells. The present invention used MTT assay to evaluate cell viability after exposure to TD-52 or erlotinib for 48 h. […] To further evaluate the cell apoptosis induced by the treatments, all four cell lines were treated with TD-52 and erlotinib at the indicated concentration for 24 h and the percentages of sub-G1 cells were determined by flow cytometry (FIG. 1B).

H2170 = test: cell viability of H2170 cells, 1 and 10 uM; type: cell-based; details: Homo sapiens, NCI-H2170
PLC5 xenograft tumor = PLC5 xenograft tumor growth in nude mice; type: in vivo
Description: Male NCr athymic nude mice (5-7 weeks of age) were obtained from the National Laboratory Animal Center (Taipei, Taiwan). All experimental procedures using these mice were performed in accordance with protocols approved by the Institutional Laboratory Animal Care and Use Committee of National Taiwan University. Each mouse was inoculated subcutaneously in the dorsal flank with 1×10^6 PLC5 or A549 cells suspended in serum-free medium containing 50% Matrigel (BD Biosciences, Bedford, Mass., USA). When tumors reached 100-150 mm^3, mice were treated with sorafenib, the erlotinib derivatives of the present invention, or vehicle (control) at 10 mg/kg/day daily by oral gavage for 4 weeks.
The present invention used a PLC5 xenograft mouse model to assess the effects of TD-52 in vivo. The present choose sorafenib as one of the comparative treatment arms. Tumor-bearing mice were administered sorafenib (10 mg/kg), TD-52 (10 mg/kg) or DMSO (vehicle, as control). […] The present invention further examined the xenografted tumors taken from mice receiving TD-52 and vehicle to confirm the molecular events in the tumor tissue. […] When PP2A activity was enhanced by TD-52, Akt was dephosphorylated, promoting HCC cell apoptosis.

[1] = system: HCC cells (HA22T, Hep3B, PLC5, Sk-Hep1); test: annexin-V/PI double-staining assay of apoptotic and necrotic cell death; type: cell-based; details: 2 μM or higher doses, 48 h, four HCC cell lines
Description: The numbers of apoptotic cells after treatment with DMSO, sorafenib or the erlotinib derivatives of the present invention were assessed by flow cytometry (sub-G1). Annexin-V/propidium iodidie (PI) double-staining assay was used to determine numbers of both apoptotic and necrotic cells. For above tow assays, HCC cells were harvested after the erlotinib derivatives of the present invention treatment and incubated with PI alone for sub-G1 assay and in combination with annexin-V—FITC. Analysis of cell composition was performed by flow cytometry. The erlotinib derivatives of the present invention-induced apoptotic cell death was assessed by western blot analysis of activated caspases and cleaved PARP, and cell death enzyme-linked immunosorbent assay (ELISA) for cytoplasmic histone-associated DNA fragments (Roche, Indianapolis, Ind., USA). The effect of co-treatment with the erlotinib derivatives of the present invention and z-VAD-fmk, the caspase inhibitor, were assessed by western blot analysis and flow cytometry.
To better characterize the antitumor properties of TD-52, annexin-V/propidium iodide (PI) double-staining assay, western blot analysis, cell cycle analysis and DNA fragmentation assay were performed (FIGS. 1C-1E). At dose increase, the proportion of apoptosis and necrosis of cancer cell ware analyzed by annexin-V—FITC/PI double-staining assay. […]

Hep3B = test: MTT cell viability, Hep3B; type: cell-based; details: Homo sapiens, 48 h
Description: as §1, §2

Compound: C#Cc1cccc(Nc2nc3ccccc3nc2Nc2cccc(C#C)c2)c1 [TD52, N^2,N^3-bis(3-ethynylphenyl)quinoxaline-2,3-diamine]
- viability at 1 µM (NCI-1703; 1 uM): 84.7 ± 2.5%
- viability at 10 µM (NCI-1703; 10 uM): 10.1 ± 0.1%
- IC50 (NCI-1703; cell viability): 3800 nM
- BA (%) (BA (%), Table 5): 87%
- minimal concentration for PP2A activation (PP2A): 100 to 200 nM
- PP2A activity in HCC cells (PP2A; 1 μL (printed) TD-52, 24 hr): enhanced
- IC50 (Sk-Hep1): 1200 nM
- viability at 1 µM (H2170; 1 uM): 100 ± 3.21%
- viability at 10 µM (H2170; 10 uM): 7.84 ± 9.49%
- inhibition of in vivo tumor growth in comparison with sorafenib (PLC5 xenograft tumor; 10 mg/kg each, P<0.05): more potent inhibition of in vivo tumor growth
- tumor size (PLC5 xenograft tumor; 10 mg/kg, oral gavage daily, 4 weeks, vs control arm): smaller than those of the control arm
- PP2A activity in xenograft tumor samples (PLC5 xenograft tumor; TD-52 vs vehicle): enhanced PP2A activity
- extents of cancer cell death, included apoptotic and necrotic death [1]: ≥ 50%
- IC50 (Hep3B): 900 nM
